From patent US8541418B2, “Inhibitors of polo-like kinase” (Elan Pharmaceutical, Inc., priority 2009, dated 2013)
Read-outs that look alike come from different tables or passages of the source.

Key:
Type in all cases: biochemical
PLK2 = PLK2 (Homo sapiens, UniProt Q9NYY3); assay: PLK TR-FRET peptide assay, PLK2; settings: for IC50: PLK TR-FRET peptide assay, GST-PLK2, 60 min reaction, read-out: Plk2 IC50; for relative PLK2 activity of the enantiomers: compared with the opposite enantiomer
PLK1 = PLK1 (Homo sapiens, UniProt P53350); assay: PLK TR-FRET peptide assay, PLK1; settings: GST-PLK1, 60 min reaction
PLK1, sequence (P53350 whole entry): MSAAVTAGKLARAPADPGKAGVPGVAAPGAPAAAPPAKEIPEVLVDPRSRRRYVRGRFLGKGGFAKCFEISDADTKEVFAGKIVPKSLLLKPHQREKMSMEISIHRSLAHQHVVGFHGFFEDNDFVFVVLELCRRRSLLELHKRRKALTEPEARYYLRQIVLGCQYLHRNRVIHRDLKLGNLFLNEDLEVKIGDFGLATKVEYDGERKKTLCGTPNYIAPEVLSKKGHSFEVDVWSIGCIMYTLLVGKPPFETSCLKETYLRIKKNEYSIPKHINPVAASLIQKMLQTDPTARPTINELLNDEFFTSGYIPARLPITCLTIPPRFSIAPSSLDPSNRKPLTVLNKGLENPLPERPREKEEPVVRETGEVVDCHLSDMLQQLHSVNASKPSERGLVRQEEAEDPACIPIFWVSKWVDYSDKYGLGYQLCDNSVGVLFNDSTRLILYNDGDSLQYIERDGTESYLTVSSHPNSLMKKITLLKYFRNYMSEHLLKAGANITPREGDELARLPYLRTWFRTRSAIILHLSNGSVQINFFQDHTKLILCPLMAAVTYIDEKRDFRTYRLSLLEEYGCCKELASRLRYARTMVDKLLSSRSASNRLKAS

PLK3 = PLK3 (Homo sapiens, UniProt Q9H4B4); assay: PLK TR-FRET peptide assay, PLK3
PLK3, sequence (Q9H4B4 whole entry): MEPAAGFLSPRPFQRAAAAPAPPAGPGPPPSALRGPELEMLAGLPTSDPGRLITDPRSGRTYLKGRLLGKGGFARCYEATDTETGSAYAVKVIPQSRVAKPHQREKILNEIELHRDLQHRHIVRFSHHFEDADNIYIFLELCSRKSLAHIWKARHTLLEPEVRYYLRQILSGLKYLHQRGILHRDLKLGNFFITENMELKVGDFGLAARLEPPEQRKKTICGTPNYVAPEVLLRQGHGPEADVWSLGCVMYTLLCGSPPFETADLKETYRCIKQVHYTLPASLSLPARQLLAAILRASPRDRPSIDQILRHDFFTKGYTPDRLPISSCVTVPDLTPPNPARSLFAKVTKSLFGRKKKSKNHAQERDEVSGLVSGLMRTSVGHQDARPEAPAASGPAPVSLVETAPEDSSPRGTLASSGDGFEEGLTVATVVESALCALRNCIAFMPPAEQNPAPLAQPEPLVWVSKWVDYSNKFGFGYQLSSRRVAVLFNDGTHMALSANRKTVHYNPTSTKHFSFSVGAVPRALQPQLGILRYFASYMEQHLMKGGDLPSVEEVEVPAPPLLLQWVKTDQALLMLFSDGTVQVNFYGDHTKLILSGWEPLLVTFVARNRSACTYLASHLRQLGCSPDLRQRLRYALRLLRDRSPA

[1] = GST-PLK3, 15 min reaction, read-out: Plk3 IC50
[2] = read-out: Plk3 IC50, GST-PLK3, 15 min reaction

PLK2, sequence (Q9NYY3 whole entry): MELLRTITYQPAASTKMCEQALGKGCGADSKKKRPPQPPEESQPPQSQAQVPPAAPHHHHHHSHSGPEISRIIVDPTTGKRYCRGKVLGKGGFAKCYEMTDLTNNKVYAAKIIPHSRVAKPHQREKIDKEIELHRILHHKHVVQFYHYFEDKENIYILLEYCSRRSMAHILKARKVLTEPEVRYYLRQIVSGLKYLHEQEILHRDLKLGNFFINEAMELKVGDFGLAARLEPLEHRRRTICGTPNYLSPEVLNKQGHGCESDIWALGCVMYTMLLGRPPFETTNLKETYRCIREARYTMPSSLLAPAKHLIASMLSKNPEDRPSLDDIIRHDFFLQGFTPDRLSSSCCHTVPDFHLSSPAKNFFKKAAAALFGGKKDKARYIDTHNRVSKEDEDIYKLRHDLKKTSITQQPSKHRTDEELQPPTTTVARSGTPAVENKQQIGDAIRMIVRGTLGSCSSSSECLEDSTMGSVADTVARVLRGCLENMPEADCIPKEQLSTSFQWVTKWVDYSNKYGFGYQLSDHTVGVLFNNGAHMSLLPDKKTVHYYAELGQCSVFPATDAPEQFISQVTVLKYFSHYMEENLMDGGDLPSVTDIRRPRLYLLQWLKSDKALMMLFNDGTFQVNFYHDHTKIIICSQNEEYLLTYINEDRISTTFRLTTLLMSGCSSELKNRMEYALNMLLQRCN

In the case of `CC[C@@H]1C(=O)N(C)c2cnc(N3CCCC3)nc2N1C1CCCC1` [Example 1, (R)-8-cyclopentyl-7-ethyl-5-methyl-2-(pyrrolidin-1-yl)-7,8-dihydropteridin-6(5H)-one], the IC50 (PLK2) is reported as 1 to 10 µM and the IC50 (PLK1) is reported as 10 to 50 µM.
Compound `CC[C@@H]1C(=O)N(C)c2cnc(N3CCCCC3)nc2N1C1CCCC1` [Example 2, (R)-8-cyclopentyl-7-ethyl-5-methyl-2-(piperidin-1-yl)-7,8-dihydropteridin-6(5H)-one] has an IC50 (PLK2) of 10 to 50 µM and an IC50 (PLK1) of 10 to 50 µM.
`CC[C@@H]1C(=O)N(C)c2cnc(-n3cnc4ccccc43)nc2N1C1CCCC1` [Example 4, (R)-2-(1H-benzo[d]imidazol-1-yl)-8-cyclopentyl-7-ethyl-5-methyl-7,8-dihydropteridin-6(5H)-one] showed an IC50 (PLK2) of under 1 µM and an IC50 (PLK1) of under 1 µM.
Compound `CC[C@@H]1C(=O)N(C)c2cnc(-c3ccc[nH]3)nc2N1C1CCCC1` [Example 6, (R)-8-cyclopentyl-7-ethyl-5-methyl-2-(1H-pyrrol-2-yl)-7,8-dihydropteridin-6(5H)-one] has an IC50 (PLK2) of under 1 µM and an IC50 (PLK1) of under 1 µM.
For `CC[C@@H]1C(=O)N(C)c2cnc(-c3ccccn3)nc2N1C1CCCC1` [Example 8, (R)-8-cyclopentyl-7-ethyl-5-methyl-2-(pyridin-2-yl)-7,8-dihydropteridin-6(5H)-one], the IC50 (PLK2) was 1 to 10 µM and the IC50 (PLK1) was 1 to 10 µM.
In the case of `CC[C@@H]1C(=O)N(C)c2cnc(-c3cc4ccccc4[nH]3)nc2N1C1CCCC1` [Example 9, (R)-8-cyclopentyl-7-ethyl-2-(1H-indol-2-yl)-5-methyl-7,8-dihydropteridin-6(5H)-one], the IC50 (PLK2) is reported as 1 to 10 µM and the IC50 (PLK1) is reported as under 1 µM.
With `CC[C@@H]1C(=O)N(C)c2cnc(-c3cccc4cc[nH]c34)nc2N1C1CCCC1` [Example 10, (R)-8-cyclopentyl-7-ethyl-2-(1H-indol-7-yl)-5-methyl-7,8-dihydropteridin-6(5H)-one] the IC50 (PLK2) was 1 to 10 µM and the IC50 (PLK1) was 10 to 50 µM.
In the case of `CC[C@@H]1C(=O)N(C)c2cnc(-c3cccc4cccnc34)nc2N1C1CCCC1` [Example 11, (R)-8-cyclopentyl-7-ethyl-5-methyl-2-(quinolin-8-yl)-7,8-dihydropteridin-6(5H)-one], the IC50 (PLK2) is reported as 10 to 50 µM and the IC50 (PLK1) is reported as over 50 µM.
Compound `CC[C@@H]1C(=O)N(C)c2cnc(-c3ccccc3)nc2N1C1CCCC1` [Example 12, (R)-8-cyclopentyl-7-ethyl-5-methyl-2-phenyl-7,8-dihydropteridin-6(5H)-one] has an IC50 (PLK2) of 1 to 10 µM and an IC50 (PLK1) of 1 to 10 µM.
`CC[C@@H]1C(=O)N(C)c2cnc(-c3ccnc(OC)c3)nc2N1C1CCCC1` [Example 15, (R)-8-cyclopentyl-7-ethyl-2-(2-methoxypyridin-4-yl)-5-methyl-7,8-dihydropteridin-6(5H)-one] gave an IC50 (PLK2) of under 1 µM and an IC50 (PLK1) of under 1 µM.
`CN1C(=O)[C@H]2CCCCN2c2nc(-n3ccnc3)ncc21` [Example 24, (R)-2-(1H-imidazol-1-yl)-5-methyl-7,8,9,10-tetrahydro-5H-pyrido[2,1-h]pteridin-6(6aH)-one] gave an IC50 (PLK2) of over 50 µM and an IC50 (PLK1) of over 50 µM.
Compound `CN1C(=O)[C@H]2CCCCN2c2nc(-c3ccncc3)ncc21` [Example 25, (R)-5-methyl-2-(pyridin-4-yl)-7,8,9,10-tetrahydro-5H-pyrido[2,1-h]pteridin-6(6aH)-one] has an IC50 (PLK2) of 10 to 50 µM and an IC50 (PLK1) of over 50 µM.
Work on `CC[C@@H]1C(=O)N(C)c2cnc(-n3cc[n+](C)c3C)nc2N1C1CCCC1` [Example 28, (R)-1-(8-cyclopentyl-7-ethyl-5-methyl-6-oxo-5,6,7,8-tetrahydropteridin-2-yl)-2,3-dimethyl-1H-imidazol-3-ium] yielded an IC50 (PLK2) of over 50 µM and an IC50 (PLK1) of over 50 µM.
Work on `CCOC(=O)c1cnn(-c2ncc3c(n2)N(C2CCCC2)[C@H](CC)C(=O)N3)c1` [Example 30, (R)-ethyl 1-(8-cyclopentyl-7-ethyl-6-oxo-5,6,7,8-tetrahydropteridin-2-yl)-1H-pyrazole-4-carboxylate] yielded an IC50 (PLK2) of over 50 µM and an IC50 (PLK1) of over 50 µM.
With `CC[C@@H]1C(=O)N(C)c2cnc(-n3cc(C(=O)NC)cn3)nc2N1C1CCCC1` [Example 40, (R)-1-(8-cyclopentyl-7-ethyl-5-methyl-6-oxo-5,6,7,8-tetrahydropteridin-2-yl)-N-methyl-1H-pyrazole-4-carboxamide] the IC50 (PLK2) was 1 to 10 µM.
For `CC[C@@H]1C(=O)N(C)c2cnc(-c3ccccc3-c3ccccc3)nc2N1C1CCCC1` [Example 70, (R)-2-(biphenyl-2-yl)-8-cyclopentyl-7-ethyl-5-methyl-7,8-dihydropteridin-6(5H)-one], the IC50 (PLK1) was under 1 µM and the IC50 (PLK3; [1]) was under 1 µM.
For `CC[C@@H]1C(=O)N(C)c2cnc(-c3ccncc3CNC(=O)OC(C)(C)C)nc2N1C1CCCC1` [Example 106, (R)-tert-butyl (4-(8-cyclopentyl-7-ethyl-5-methyl-6-oxo-5,6,7,8-tetrahydropteridin-2-yl)pyridin-3-yl)methylcarbamate], the IC50 (PLK1) was 10 to 50 µM and the IC50 (PLK3; [1]) was over 50 µM.
`CC[C@@]12CCCN1c1nc(-n3ccnc3-c3cccc(Br)c3)ncc1N(C)C2=O` [Example 252, (S)-2-(2-(3-bromophenyl)-1H-imidazol-1-yl)-6a-ethyl-5-methyl-6a,7,8,9-tetrahydropyrrolo[2,1-h]pteridin-6(5H)-one] showed an IC50 (PLK1) of 1 to 10 µM and an IC50 (PLK3; [1]) of 10 to 50 µM.
`CCC1(C)C(=O)N(C)c2cnc(-n3ccnc3-c3ccc(F)cc3)nc2N1CCC(F)(F)F` (stereo not drawn) [Example 279, 7-ethyl-2-(2-(4-fluorophenyl)-1H-imidazol-1-yl)-5,7-dimethyl-8-(3,3,3-trifluoropropyl)-7,8-dihydropteridin-6(5H)-one] showed an IC50 (PLK3; [2]) of 10 to 50 µM.
In the case of `CC(C)N1c2nc(-n3ccnc3-c3ccc(F)cc3)ncc2N(C)C(=O)C12CCC2` [Example 290, 2′-(2-(4-fluorophenyl)-1H-imidazol-1-yl)-8′-isopropyl-5′-methyl-5′H-Spiro[cyclobutane-1,7′-pteridin]-6′(8′H)-one], the IC50 (PLK3; [2]) is reported as 10 to 50 µM.
`CCC1C(=O)N(C)c2cnc(-n3ccnc3-c3ccc(F)cc3)nc2N1c1cccc(C#N)c1` (stereo not drawn) [Example 332] was tested, and the IC50 (PLK2) was under 1 µM and the IC50 (PLK3; [1]) was 1 to 10 µM.
`CC[C@@]12COCCN1c1nc(-c3cn[nH]c3-c3nccs3)ncc1N(C)C2=O` [Example 344, (S)-6a-ethyl-5-methyl-2-(5-(thiazol-2-yl)-1H-pyrazol-4-yl)-6a,7,9,10-tetrahydro-[1,4]oxazino[3,4-h]pteridin-6(5H)-one] was tested, and the “relative PLK2 activity of the enantiomers” value (“relative PLK2 activity” for short) (PLK2) was “more active compound”.
For `CC[C@@]12COCCN1c1nc(-c3snnc3-c3ccccc3)ncc1N(C)C2=O` [Example 368, (S)-6a-ethyl-5-methyl-2-(4-phenyl-1,2,3-thiadiazol-5-yl)-6a,7,9,10-tetrahydro-[1,4]oxazino[3,4-h]pteridin-6(5H)-one], the “relative PLK2 activity” value (PLK2) was “more active compound”.
For `CC[C@@]12CN(C)CCN1c1nc(-n3ccnc3-c3ccccc3)ncc1N(C)C2=O` [Example 374, (S)-6a-ethyl-5,8-dimethyl-2-(2-phenyl-1H-imidazol-1-yl)-7,8,9,10-tetrahydro-5H-pyrazino[2,1-h]pteridin-6(6aH)-one], the “relative PLK2 activity” value (PLK2) was “more active compound”.
With `CC[C@@]12COCCN1c1nc(-n3ccnc3-c3ccc(F)cc3F)ncc1N(C)C2=O` [Example 376, (S)-2-(2-(2,4-difluorophenyl)-1H-imidazol-1-yl)-6a-ethyl-5-methyl-6a,7,9,10-tetrahydro-[1,4]oxazino[3,4-h]pteridin-6(5H)-one] the “relative PLK2 activity” value (PLK2) was “more active compound”.
`CC[C@@]12COCCN1c1nc(-n3ccnc3-c3ccc(F)cn3)ncc1N(C)C2=O` [Example 380, (S)-6a-ethyl-2-(2-(5-fluoropyridin-2-yl)-1H-imidazol-1-yl)-5-methyl-6a,7,9,10-tetrahydro-[1,4]oxazino[3,4-h]pteridin-6(5H)-one] was tested, and the “relative PLK2 activity” value (PLK2) was “more active compound”.
In the case of `CC[C@@]12COCCN1c1nc(-n3ccnc3-c3nccs3)ncc1N(C)C2=O` [Example 387, (S)-6a-ethyl-5-methyl-2-(2-(thiazol-2-yl)-1H-imidazol-1-yl)-6a,7,9,10-tetrahydro-[1,4]oxazino[3,4-h]pteridin-6(5H)-one], the “relative PLK2 activity” value (PLK2) is reported as “more active compound”.
For `CC[C@@]12COCCN1c1nc(-c3ccncc3-c3ccccc3)ncc1N(C)C2=O` [Example 394, (S)-6a-ethyl-5-methyl-2-(3-phenylpyridin-4-yl)-6a,7,9,10-tetrahydro-[1,4]oxazino[3,4-h]pteridin-6(5H)-one], the “relative PLK2 activity” value (PLK2) was “more active compound”.
`CC[C@@]12COCCN1c1nc(-c3snnc3-c3ccc(F)cc3F)ncc1N(C)C2=O` [Example 397, (S)-2-(4-(2,4-difluorophenyl)-1,2,3-thiadiazol-5-yl)-6a-ethyl-5-methyl-6a,7,9,10-tetrahydro-[1,4]oxazino[3,4-h]pteridin-6(5H)-one] was tested, and the “relative PLK2 activity” value (PLK2) was “more active compound”.
For `CC[C@@H]1C(=O)N(C)c2cnc(-n3ccnc3-c3ccc(F)cc3)nc2N1c1ccn(C)n1` [Example 407, (R)-7-ethyl-2-(2-(4-fluorophenyl)-1H-imidazol-1-yl)-5-methyl-8-(1-methyl-1H-pyrazol-3-yl)-7,8-dihydropteridin-6(5H)-one], the “relative PLK2 activity” value (PLK2) was “more active compound”.
For `CC[C@@H]1C(=O)N(C)c2cnc(-n3ccnc3-c3ccccc3)nc2N1c1cnn(C)c1` [Example 409, (R)-7-ethyl-5-methyl-8-(1-methyl-1H-pyrazol-4-yl)-2-(2-phenyl-1H-imidazol-1-yl)-7,8-dihydropteridin-6(5H)-one], the “relative PLK2 activity” value (PLK2) was “more active compound”.
For `CC[C@@]12COCCN1c1nc(-c3cn[nH]c3-c3ccc(F)cc3F)ncc1N(C)C2=O` [Example 411, (S)-2-(5-(2,4-difluorophenyl)-1H-pyrazol-4-yl)-6a-ethyl-5-methyl-6a,7,9,10-tetrahydro-[1,4]oxazino[3,4-h]pteridin-6(5H)-one], the “relative PLK2 activity” value (PLK2) was “more active compound”.
`CC[C@@]12COCCN1c1nc(-n3ccnc3-c3ccccc3)ncc1NC2=O` [Example 418, (S)-6a-ethyl-2-(2-phenyl-1H-imidazol-1-yl)-6a,7,9,10-tetrahydro-[1,4]oxazino[3,4-h]pteridin-6(5H)-one] was tested, and the “relative PLK2 activity” value (PLK2) was “more active compound”.
